Literature values, collected in US20180133147A1, “Drug Delivery Systems” (Novartis AG, priority 2013, published 2018).
Like-named read-outs stand apart in the source and are kept apart here.

Q: Which solubility in water (25° C.) does the source give for octreotide pamoate here?
A: 200 µg/mL

Q: Which solubility in water does the source give for pasireotide pamoate here?
A: 20 µg/mL

Q: Which “solubility in phosphate buffer saline” value (PBS pH 7.4) does the source give for vapreotide pamoate here?
A: 20 to 40 µg/mL
